These results are taken from article PMC9231138, “Dihydrotanshinone I Enhances Cell Adhesion and Inhibits Cell Migration in Osteosarcoma U−2 OS Cells through CD44 and Chemokine Signaling” (Molecules, 2022).

Where two headings read alike, the source gives them in different places.

The subject of one experiment is FASN. Briefly: RT-PCR FASN mRNA in U−2 OS cells. It is filed as cell-based, human. Conditions: 24 h. How it is done: (§1) Total RNA within cells was extracted by the RNAeasy™ Animal Long RNA Isolation Kit with Spin Column (Shanghai, Beyotime); the concentrations and OD260/OD280 and OD230/OD260 values were measured by NanoDrop. Five micrograms of RNA was used for reverse transcription; each sample was diluted to 16 μL, and 4 μL of synthesized premix solution (5×) was added, then the mixtures were placed in a 42 °C water bath for 10 min, then an 80 °C water bath for 10 min to deactivate reverse transcriptase. After reverse transcription, each sample was diluted to 140 μL. PCR amplification was carried out by the ABI700 real-time PCR system, and the amplification reaction was detected with a SYBR probe. After PCR, actin and GAPDH were used as internal references, and the relative standard curve method (2^−ΔΔcT) determined the relative expression of mRNA.

The test system of experiment [1] is U−2 OS cells. Kind of experiment: MTT cell proliferation assay, U−2 OS cells. It is filed as cell-based. Conditions: Homo sapiens, U2OS. As for the experimental part:
(§2) The effects of tanshinones (DS−1 to DS−5) on the proliferation of U−2 OS cells, HeLa cells, and NRK−49F cells were measured by the classical MTT method with minor modifications as follows. Cells were seeded at 5000 per well in 96-well plates, with each group being repeated in 5 wells, and were incubated for 12 h. DS−1 to DS−5 were added at gradient concentrations, then incubated for 24 and 48 h, respectively. Then, 20 μL MTT solution (solved in PBS, 5 mg/mL) was added to every well, and the cells were further incubated at 37 °C for 4 h until a purple precipitate was visible. The plate was centrifuged at 1000 rpm for 1 min; the supernatant was suctioned, and 150 μL of DMSO was added per well; the plate was shaken on a shaker protected from light for 15 min. We placed the plate in an enzyme marker and measured the absorbance values at a 490 nm wavelength.

For experiment [2], the system named is U−2 OS cells. Kind of experiment: Length of actin protrusions (Image J). Type of experiment: cell-based, human. To be noted: DS−1 for 24 h. As for the experimental part: Figure 8 CD44 knockdown reduced cell adhesion by shortening cell protrusions. (A) U−2 OS cells transfected with CD44 siRNA and no siRNA were seeded into a 24-well plate treated with 7.5 μM DS−1 for 24 h, and the expression of CD44 was detected by immunofluorescence. (B) CD44 expression of U−2 OS cells was detected by Western blotting after being treated with siRNA for 0, 24, and 36 h. (C) U−2 OS cells were first transfected with/without CD44 siRNA and then treated with DS−1 for 24 h, and its actin morphologies were detected. The representative magnified actin morphologies are listed in (D). (E) The lengths of protrusions in (C) were analyzed by Image J and are shown in a scatterplot graph. The lengths of 20 protrusions from actin in (C) were calculated. Each value is the average of 20 lengths of protrusions, ** p < 0.01, *** p < 0.005. (F) U−2 OS cells were transfected with CD44 siRNA, then treated with 0 and 7.5 μM DS−1 for 24 h and digested with trypsin at 25 °C; the digestion time was recorded by a microscope, and photos were taken every 30 s. The percentage of digested cells is recorded in (G).
Actin promotes the formation of protrusions around the cells. After CD44 knockdown and DS−1 treatment, the morphology of actin was observed. The average length of protrusions was measured by Image J [59]. […]

The next experiment relates to slug. Briefly: RT-PCR slug mRNA in U−2 OS cells. To be noted: 24 h. It is filed as cell-based, human. As for the experimental part:
as §1

The test system of a further experiment is HeLa cells. Kind of experiment: MTT cell proliferation assay, HeLa cells. Type of experiment: cell-based. Conditions: Homo sapiens, 24 h, read-out: IC50 HeLa cells (24 h). As for the experimental part: as §2
For the next experiment, the system named is p21. Briefly: RT-PCR p21 mRNA in U−2 OS cells. It is filed as cell-based, human. To be noted: 24 h. As for the experimental part: as §1

For the molecule `Cc1cccc2c3c(ccc12)C1=C(C(=O)C3=O)[C@@H](C)CO1` [DS−1, 15,16-Dihydrotanshinone I], the “FASN mRNA, fold of the control group” value is listed as 0.59 ± 0.14 fold with FASN (DS−1 2.5 µM), 0.51 ± 0.07 fold in the experiment on FASN (DS−1 5.0 µM) and 0.26 ± 0.01 fold in the experiment on FASN (DS−1 7.5 µM). The IC50 in the experiment on U−2 OS cells [1] (24 h, read-out: IC50 U−2 OS cells (24 h)) was 3.83 ± 0.49 µM; with U−2 OS cells [1] (48 h, read-out: IC50 U−2 OS cells (48 h)) it was 1.99 ± 0.37 µM; in the experiment with HeLa cells, 15.5 ± 0.98 µM. The “average length of protrusions” value with U−2 OS cells [2] (CD44 knockdown group, knockdown without DS−1 0.203 ± 0.056 μm) was 0.213 ± 0.061 μm; in the experiment with U−2 OS cells [2] (no CD44 siRNA, control 0.307 ± 0.097 μm), 0.403 ± 0.103 μm. The “slug mRNA, fold of the control group” value in the experiment with slug (DS−1 5.0 µM) was 0.58 ± 0.13 fold; in the experiment on slug (DS−1 7.5 µM), 0.45 ± 0.07 fold. The “p21 mRNA, fold of the control group” value came to 10.1 ± 3.9 fold in the experiment on p21 (DS−1 2.5 µM), 56.8 ± 8.2 fold in the experiment with p21 (DS−1 5.0 µM) and 90.2 ± 6.7 fold in the experiment on p21 (DS−1 7.5 µM).

In general, IC50 refers to the concentration that inhibits the measured activity by half.
